Experimental data: patent US7947279B2, “Peptide having hydrolase activity” (The Trustees of Columbia University in the City of New York, priority 2005, dated 2011)
Entries after “also recorded” stand apart in the source; their conditions may differ.

Tests used:
PKA [1] = experiment: PKA kinase activity in hippocampal cultures; assay type: cell-based, rat
Protocol: PKA Kinase Activity Measurement. Primary hippocampal neurons from E18 rats were dissociated and cultured as described (Vitolo et al, Proc Natl Acad Sci USA 99:13217-13221 (2002)). […]
Hippocampal slices were lysed with RIPA lysis buffer and homogenized by Dounce homogenizer on ice. 5 DIV primary cultures were treated for 24 hrs and cells were lysed with RIPA lysis buffer.
Levels of intracellular PKA kinase activity were measured by PKA Kinase Activity Assay Kit (Stressxpress) according to manufacturer's instructions.
(§1) Preparation of Cell Cultures. Hippocampal cell cultures were prepared as previously described (Vitolo et al., 2002). In cell culture experiments fetuses at embryonic day 18 from timed pregnant Sprague-Dawley rats (Taconic Farms) were used. Fetuses were sacrificed and the hippocampi removed. Neurons were then dissociated, plated on 6 well-plates coated with poly-L-lysine and maintained in a defined serum-free medium containing minimum essential medium supplemented with N-2, glucose, albumin, pyruvic acid, antibiotics and antimycotics. […] 5 DIV cells were used for the experiments.

[2] = tested on: CA1-LTP in hippocampal slices; experiment: CA1-LTP in hippocampal slices (theta-burst); assay type: cell-based, mouse
[3] = tested on: PPF in hippocampal slices; experiment: Paired pulse facilitation (PPF) in hippocampal slices; assay type: cell-based, mouse
PKA [4] = experiment: PKA kinase activity in hippocampal slices; assay type: cell-based, mouse
[5] = tested on: BST at the Schaffer collateral/CA1 connection of hippocampal slices; experiment: Basal synaptic transmission (BST) in hippocampal slices; assay type: cell-based, mouse
[6] = tested on: SY5Y neuroblastoma cells transfected with a degron CL1-GFP expression vector; experiment: Proteasome reporter assay (GFP^u); assay type: cell-based, human; conditions: substance alone
Protocol: Proteasome reporter assays. In this cell line, human neuroblastoma SH-SY5Y cells were permanently transfected with reporter construct consisting of green fluorescent protein (GFP) conjugated at its C-terminus to a short degron sequence (CL-1) (Gilon et al., 1998). […] The SY5Y-GFP^u cells were grown in 1×DMEM (Invitrogen) supplemented with 15% fetal bovine serum (JRH), 1× penicillin/streptomycin (Gibco). After indicated treatments, GFP^u concentrations were assayed by densitometric analysis of immunoblots of total protein extracts (10 ug/lane) using monoclonal GFP antibodies (Santa Cruz Biotechnology) and visualized with HRP-conjugated secondary antibodies and ECL (Pierce). Loading equalization was normalized by probing blots with anti-ERK antibodies (Santa Cruz Biotechnology).

monoubiquitin = experiment: Monoubiquitin levels (quantitative Western blot); assay type: cell-based, mouse
Protocol: (§2) Western Blotting: Protein levels were assessed using standard procedures. Protein extraction was performed using buffer with and without detergent. For the extraction of protein using detergent, hippocampal tissues and cultured hippocampal neurons (5 DIV) were homogenized in RIPA buffer (50 mM Tris-HCl pH 7.4, 1% Triton X-100, 1% sodium deoxycholate, 0.1% SDS, 150 mM sodium chloride, 10 mM sodium fluoride, 30 mM sodium pyrophosphate, 50 mM sodium orthovanadate) containing 1× complete protease inhibitor (Roche) and 1 mM phenylmethylsulfonyl fluoride (PMSF). For extraction of proteins without detergent, hippocampal extracts were homogenized with disposable dounce homogenizers in buffer A, containing 10 mM HEPES pH 7.3, 300 mM sucrose, protease 1× complete protease inhibitor (Roche) and PMSF. After centrifugation at 10,000×g supernatant proteins were resolved on a 8% or 4-20% gradient Tris-Glycine gel, transferred onto PVDF or nitrocellulose membrane and blocked in 5% skim milk in PBS-Tween 0.1% (PBS-T). Membranes were probed with primary antibodies, and after washing with PBS-T incubated with an appropriate HRP-conjugated secondary antibody. The following antibodies were used: mouse monoclonal anti-ubiquitin (Chemicon), rabbit polyclonal anti-pCREB (Upstate Biotech.), rabbit polyclonal anti-PKA-RIIα (Santa Cruz Biotech. Inc), mouse monoclonal anti-Uch-L1 (Novocastra), monoclonal mouse anti-HA (Santa Cruz Biotech. Inc), and anti-PKA IIα. Detection was performed using HRP-conjugated secondary antibodies (Pierce, Rockford, Ill.). To control loading and transfer, protein immunoreactivities were normalized against total extracellular signal-regulated protein kinases (ERK1/2) levels with a rabbit analyzed using a rabbit polyclonal anti-ERK1/2 antibody (Cell Signaling Technology, Inc). NIH IMAGE was used to analyze the scanned blots and quantify the intensity of the protein signals.

phospho-CREB at Ser-133 = experiment: Phospho-CREB (Ser-133) Western blot in hippocampal cultures; assay type: cell-based, rat; conditions: 3 μM Aβ 24 hrs alone
Protocol: as §2, §1

cAMP = experiment: Intracellular cAMP enzyme immunoassay; assay type: cell-based, rat; conditions: Aβ 3 μM 24 hrs alone
Protocol: Intracellular cAMP Enzyme Immunoassay. Hippocampal neurons from E18 rats were dissociated and plated on poly-L-lysine coated 6-well plates in minimum essential medium supplemented with N-2, glucose, albumin, pyruvic acid, antibiotics and antimycotics. […] After 24 hours, cell lysates were obtained and intracellular cAMP levels were measured using cAMP Biotrak Enzymeimmunoassay (EIA) System (Amersham) in accordance with manufacturer's instructions.

phospho-CREB = experiment: Phospho-CREB immunofluorescence in hippocampal slices; assay type: cell-based, mouse; conditions: for tetanus-induced increase in phospho-CREB (words): Aβ alone
PKA RIIα = PKA RIIα levels in hippocampal slices (Western blot); assay type: cell-based, mouse; conditions: for PKA RIIα levels (words): Aβ 200 nM 20 min alone
Protocol: as §2

Uch-L1 = experiment: Hydrolase (ubiquitin-AMC) assay on hippocampal slices; assay type: cell-based, mouse; conditions: 200 nM Aβ alone
Protocol: Slice preparation. Mice were decapitated and their hippocampi removed. […] Slices were permitted to recover from cutting for at least 90 min. before recordings. For experiments with lactacystin, slices were perfused with the drug or vehicle for 2 to 4 hrs in a small volume (10 ml) chamber.
Briefly, hippocampal tissue was treated with tissue protein extraction reagent (T-PER; Pierce) containing freshly added EDTA-free protease inhibitors. Homogenate was centrifuged at 10,000 rpm for 5 min. Protein concentration was measured in the supernatant using the BCA protein assay reagent. In some experiments hydrolysis was initiated by adding 10 μl of 20 nM Uch-L1 or Uch-L3 (Boston Biochem). The hydrolase assay was performed using fluorogenic ubiquitin-7-amino-4-methylcoumarin (ubiquitin-AMC) (Boston Biochem) as a substrate. The substrate was diluted in assay buffer (50 mM Tris-HCL, 0.5 mM EDTA, 5 mM dithiothreitol and 0.1 mg/ml ovalbumin, pH 7.6). Each reaction mixture containing 400 nM substrate and 100 μg enzyme sample was incubated for 5 min at room temperature. The reaction was monitored using a fluorescence spectrophotometer (CytoFluor Series 4000, ABI Inc) at 25° C. The free AMC fluorophore was excited at 380 nm and measured at 460 nm. […] In some experiments, hydrolysis was also measured on the soluble and insoluble fractions (FIG. 28D). In a group of experiments hydrolysis was measured by mixing ubiquitin-AMC with 20 nM TAT fusion proteins (FIG. 27C). In other experiments the substrate was Nedd8-AMC (Boston Biochem).

[7] = lactacystin 10 μM, 2 to 4 hour exposure
[8] = prolonged exposure lactacystin 10 μM

## CC(=O)N[C@@H](CSC(=O)[C@]1([C@@H](O)C(C)C)NC(=O)[C@H](C)[C@@H]1O)C(=O)O [lactacystin, reference compound]
PKA [1]; lactacystin 10 μM for 1 hr
  beneficial effect of TAT-HA-Uch-L1 on PKA activity: blocked the beneficial effect
[2]; lactacystin 10 μM, 2-4 hrs
  LTP: markedly reduced; also recorded: blocked
[2]; [7]
  LTP: approximately 50 % that of vehicle treated slices
[2]; lactacystin 10 μM, 15 min
  LTP: did not change; also recorded: does not affect; also recorded: did not affect CA1-LTP
[2]; non-tetanized slices
  baseline transmission in slices without tetanic stimulation: did not affect baseline transmission
[2]; [8]
  LTP at 60 min: 116.17±14.69%
  LTP at 120 min: 119.25±12.82 % of baseline
[3]; lactacystin 10 μM, 2-4 hrs
  PPF: markedly reduced
[3]; [8]
  PPF at 50 ms interval: 150.96±10.18%
  PPF at 300 ms interval: 119.11±5.43%
PKA [4]; lactacystin 10 μM 1 hr pretreatment, TAT-HA-Uch-L1 plus Aβ
  PKA activity: 74.9±3.21%
[5]; lactacystin 10 μM, 2-4 hrs
  BST: markedly reduced; also recorded: strongly reduced
[5]; [7]
  BST (slope of the input-output curve at 35 V): approximately 50 % that of vehicle treated slices
[5]; lactacystin 10 μM, 15 min
  BST: did not change; also recorded: does not affect; also recorded: did not affect BST
[5]; [8]
  BST at 35V stimulation: 0.93±0.06 mV/ms
[6]
  GFP^u levels: much larger increase in GFP

## Aβ: oligomeric Aβ42 prepared from lyophilized synthetic peptide (American Peptide) [reference compound]
monoubiquitin; oligomeric Aβ42 200 nM for 20 min
  decrease of monoubiquitin levels: ~70%
monoubiquitin; substance alone
  monoubiquitin levels: reduced
PKA [1]; 3 μM Aβ for 24 hrs alone
  PKA activity in cultures: reduced
phospho-CREB at Ser-133
  glutamate-induced CREB phosphorylation (words): annulled the increase in phospho-CREB
phospho-CREB at Ser-133; listed as Aβ42
  glutamate-induced CREB phosphorylation (words): strong decrease in CREB phosphorylation
[2]; Aβ 200 nM alone
  LTP: markedly reduced; also recorded: LTP was reduced
[2]; oligomeric Aβ 200 nM, 20 min perfusion
  LTP at 120 min after tetanus: 136.34±13.40 % of baseline slope
cAMP
  cAMP levels: reduced cAMP levels
phospho-CREB
  tetanus-induced increase in phospho-CREB (words): blocks the increase in phosphorylated CREB; also recorded: blocked the increase in phospho-CREB; also recorded: blockade of the increase in CA1-phospho-CREB
phospho-CREB; listed as Aβ42
  tetanus-induced increase in phospho-CREB (words): blocked the increase in CA1 immunofluorescence
phospho-CREB; no tetanus
  phospho-CREB immunofluorescence without theta-burst: did not increase immunofluorescence; also recorded: did not modify immunofluorescence; also recorded: neither Aβ42 alone nor TAT-HA-Uch-L1 alone nor TAT-HA-Uch-L1 paired with Aβ42 induced changes
PKA [4]; 200 nM Aβ for 20 min alone
  PKA activity in slices: reduced
PKA [4]; 200 nM Aβ for 20 minutes
  PKA activity: 71.75±2.21 % of control
[5]; fusion protein 20 nM 1 hr or Aβ 200 nM 20 min, alone
  BST in WT slices (words): did not reveal any significant difference among treatments; also recorded: does not affect CA1-BST
PKA RIIα
  PKA RIIα levels (words): increase in PKA RIIα levels
PKA RIIα; listed as Aβ42
  PKA RIIα levels (words): marked increase in RIIα
PKA RIIα; listed as amyloid-beta
  PKA RIIα levels (words): increased
PKA RIIα; Aβ42 200 nM for 20 minutes
  RIIα levels: 163.68±10.51 % of TAT-HA control slices
Uch-L1
  ubiquitin-c-terminal hydrolase enzymatic activity: 72.36±6.81 % of TAT-HA treated WT slices
[6]
  GFP^u levels: increase in GFP levels
